Measured values published in the NIST ThermoML archive (doi:10.1016/j.tca.2011.02.043).
± gives the expanded uncertainty stated by the source.

How the values were obtained:
[1] = DTA
[2] = Molar enthalpy of transition or fusion; details: DSC
[3] = molar heat capacity at constant pressure; details: 101.33 kPa, Small sample (50 mg) DSC

[BH4-].[Li+] [lithium tetrahydroborate]
Details	Molar enthalpy of transition or fusion, [2] [kcal/mol]	Triple point temperature, [1] [K]
Crystal 1	1.96 ± 0.153	553 ± 1
Crystal 2	1.21 ± 0.0574	386.6 ± 0.5

[3]
Details	molar heat capacity at constant pressure [J/K/mol]
298 K, Crystal 2	81.51 ± 4.2
310 K, Crystal 2	84.51 ± 4.4
320 K, Crystal 2	87.33 ± 4.5
330 K, Crystal 2	89.53 ± 4.7
340 K, Crystal 2	91.21 ± 4.7
350 K, Crystal 2	92.47 ± 4.8
360 K, Crystal 2	95.46 ± 5
370 K, Crystal 2	101.2 ± 5.3
380 K, Crystal 2	106.02 ± 5.5
410 K, Crystal 1	91.06 ± 4.7
420 K, Crystal 1	91.83 ± 4.8
430 K, Crystal 1	93.09 ± 4.8
440 K, Crystal 1	94.12 ± 4.9
450 K, Crystal 1	95.43 ± 5
460 K, Crystal 1	96.7 ± 5
470 K, Crystal 1	97.95 ± 5.1
480 K, Crystal 1	99.14 ± 5.2
490 K, Crystal 1	100.69 ± 5.2
500 K, Crystal 1	101.9 ± 5.3
510 K, Crystal 1	103.3 ± 5.4
520 K, Crystal 1	104.78 ± 5.4
